Source: patent publication US11524966B1 (Valo Early Discovery, Inc., priority 2017, dated 2022)

Target: T1, USP28 (USP28-5(1-1077)-TEV-6*His; LifeSensors) (Homo sapiens, UniProt Q96RU2)
T1 construct: construct USP28 (USP28-5(1-1077)-TEV-6*His; LifeSensors); TEV cleavage site (C); 6xHis (C); purchased LifeSensors
T1 sequence (Q96RU2 1-1077): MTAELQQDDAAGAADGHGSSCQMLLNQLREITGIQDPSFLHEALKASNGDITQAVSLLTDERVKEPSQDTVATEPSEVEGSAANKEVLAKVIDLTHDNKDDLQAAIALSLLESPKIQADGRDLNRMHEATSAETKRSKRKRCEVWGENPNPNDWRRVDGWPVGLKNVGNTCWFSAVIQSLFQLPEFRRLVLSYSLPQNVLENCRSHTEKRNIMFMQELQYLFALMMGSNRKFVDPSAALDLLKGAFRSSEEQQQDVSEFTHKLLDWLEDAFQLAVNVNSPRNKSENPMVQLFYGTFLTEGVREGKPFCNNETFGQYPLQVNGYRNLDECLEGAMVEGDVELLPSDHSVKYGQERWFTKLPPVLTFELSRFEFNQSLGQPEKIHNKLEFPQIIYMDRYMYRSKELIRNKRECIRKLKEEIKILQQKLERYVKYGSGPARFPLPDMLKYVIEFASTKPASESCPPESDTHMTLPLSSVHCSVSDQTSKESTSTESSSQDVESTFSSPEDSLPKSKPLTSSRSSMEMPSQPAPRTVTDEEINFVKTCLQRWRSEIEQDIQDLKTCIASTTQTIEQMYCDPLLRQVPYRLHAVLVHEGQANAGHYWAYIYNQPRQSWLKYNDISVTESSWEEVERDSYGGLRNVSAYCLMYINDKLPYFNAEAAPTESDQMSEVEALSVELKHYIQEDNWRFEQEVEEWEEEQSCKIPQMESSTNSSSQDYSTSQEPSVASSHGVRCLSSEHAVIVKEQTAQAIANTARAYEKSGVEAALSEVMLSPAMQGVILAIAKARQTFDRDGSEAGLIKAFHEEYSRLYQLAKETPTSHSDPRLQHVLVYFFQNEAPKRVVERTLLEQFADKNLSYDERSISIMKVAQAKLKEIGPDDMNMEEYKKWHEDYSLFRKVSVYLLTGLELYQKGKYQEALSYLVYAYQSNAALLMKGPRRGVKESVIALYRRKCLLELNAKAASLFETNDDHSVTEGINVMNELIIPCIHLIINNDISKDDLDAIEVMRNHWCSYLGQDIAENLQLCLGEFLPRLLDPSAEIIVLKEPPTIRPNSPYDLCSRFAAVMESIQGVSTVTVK
Experiment: Ubiquitin-Rhodamine 110 Assay for USP28 Activity, Example A-1(b)
Format: biochemical
Details: Ubiquitin-Rhodamine 110 assay, Example A-1(b)
Procedure, shortened: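 Single-point screening used 10 μM compound with 90 min room-temperature incubation; follow-up dose-responses (25 μM top, 3-fold) used 75 pM USP28 1-1077 construct, 30 min compound preincubation, 25 nM Ub-Rh110, 20 min reaction, citric acid quench. Rh110 fluorescence normalised to no-enzyme and DMSO controls; IC50 from 4-parameter logistic fit.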

Structure (SMILES): Cc1ccc2c(N)c(C(=O)N[C@H]3COc4cc(N5CCNCC5)cc(F)c4C3)oc2n1 [Example 169, 3-amino-N-[(3R)-5-fluoro-7-(piperazin-1-yl)-3,4-dihydro-2H-1-benzopyran-3-yl]-6-methylfuro[2,3-b]pyridine-2-carboxamide]
- USP28 A-1(b) IC50 range: + (>2 μM)
